From patent US7615361B2, “Toxicity screening methods” (Ceetox, Inc., priority 2006, dated 2009)

How the values were obtained:
H4IIE cells [1] = assay: Intracellular total glutathione (GSH); type: cell-based, rat
Protocol: (§1) One test compound (Compound A) was received as dry powder and evaluated for potential cytotoxicity in a battery of in vitro assays. The compound was tested using both rat cardiomyocytes (CM) from rat neonates and a rat hepatoma (H4IIE) cell line. […] The cell supernatant or the cells themselves were harvested for biochemical analysis. General cytotoxicity was evaluated by monitoring membrane integrity, mitochondrial function, cell proliferation, oxidative stress, and apoptosis. In addition, interaction with P-glycoprotein (PgP) on H4IIE cells and solubility of the test compound were also assessed. The means of each exposure group (n=3-7) were calculated for each assay performed.
(§2) Experimental Protocol: The test compound was provided and stored at 4° C. until needed. Dosing solutions were prepared in complete culture medium. The rat hepatoma (H4IIE) cell line was used as the test system.

rat cardiomyocytes [2] = assay: Membrane lipid peroxidation (8-isoprostane ELISA); type: cell-based
Protocol: (§3) One test compound (Compound A) was received as dry powder and evaluated for potential cytotoxicity in a battery of in vitro assays. The compound was tested using both rat cardiomyocytes (CM) from rat neonates and a rat hepatoma (H4IIE) cell line. […] Camptothecin and rotenone were included as positive control compounds. The cell supernatant or the cells themselves were harvested for biochemical analysis. General cytotoxicity was evaluated by monitoring membrane integrity, mitochondrial function, cell proliferation, oxidative stress, and apoptosis. In addition, interaction with P-glycoprotein (PgP) on H4IIE cells and solubility of the test compound were also assessed. The means of each exposure group (n=3-7) were calculated for each assay performed. Intra assay variation well-to-well was typically less than 10% with plate to plate variation typically less than 20%.

rat cardiomyocytes [3] = assay: Intracellular ATP levels; type: cell-based
Protocol: as §1
(§4) Intracellular ATP Levels: Cellular Adenosine triphosphate (ATP) was determined with an assay based on a reaction between ATP+D-luciferin+oxygen catalyzed by luciferase to yield Oxyluciferin+AMP+PPi+CO2+light. The emitted light is proportional to the amount of ATP present. […] In addition, a unique cell lysis reagent inhibits endogenous ATPases and therefore stabilizes cellular ATP by preventing its degradation to ADP. ATP is present in all-living cells and declines rapidly upon cell death. In addition, this assay in combination with the MTT assay provides an indicator of mitochondrial activity and energy status of the cell.
(§5) Plates were analyzed immediately or stored at −20° C. until needed. On the day of analysis, the plates were thawed and calibration curve prepared with ATP in the same liquid matrix as samples. ATP was quantified by adding ATP substrate solution and then reading luminescence on a Packard Fusion Luminescence or equivalent plate reader.
(§6) Intracellular ATP Levels: ATP levels in treated cells could be determined by using the regression coefficients obtained from the linear regression analysis of the calibration curve. Thus, values could be expressed as pmoles ATP/million cells. Background corrected luminescence was used to determine percent change relative to controls by dividing treated values by control values and multiplying by 100.

rat cardiomyocytes [4] = assay: MTT reduction; type: cell-based
Protocol: as §1
(§7) Tetrazolium Dye Reduction: 3-[4,5-dimethylthiazol-2-yl]

rat cardiomyocytes [5] = assay: Intracellular total glutathione (GSH); type: cell-based
Protocol: as §1

P-glycoprotein (PgP) = P-glycoprotein (PgP) binding: MTT with and without cyclosporin A; type: cell-based, rat; conditions: H4IIE 24 HR, MTT, 50 μM
Protocol: Several antiviral drugs are substrates for P-glycoprotein transporter (PgP).
P-glycoprotein (PgP) transport proteins are expressed in the bile canalicular membrane of normal liver. However, in neoplastic cells it is not uncommon to have expression of this transporter system in the plasma membrane. […] The existence of these transporters was evaluated with the Calcein-AM assay and with known substrates of PgP.

rat cardiomyocytes [6] = assay: MemTox membrane leakage (AK / α-GST); type: cell-based
Protocol: as §1
(§8) Membrane Leakage (α-Glutathione S-transferase and/or Adenylate Kinase): The presence of Adenylate Kinase (AK) or α-Glutathione S-transferase (α-GST), both enzyme leakage markers, was measured in the culture medium using an activity assay for Adenylate Kinase and/or an ELISA assay for α-GST. At the end of the exposure period, the medium covering the cells in each well was removed and placed into new 96-well plates with appropriate labeling. […] Luminescence (AK) values were measured with a Packard Fusion or equivalent plate reader, and absorbance (α-GST) values were measured with a Packard SpectraCount™ or equivalent reader at 450 nm and reference absorbance at 650 nm.
(§9) Membrane Leakage (α-Glutathione S-transferase and/or Adenylate Kinase): Leakage of Adenylate Kinase or α-GST from the cell into the culture medium was determined by collecting the culture medium at the end of the exposure period. Thus, the values measured represent total enzyme leakage lost over the exposure period. The control for 100% dead or maximum enzyme release was based on cells treated with 1 mM digitonin at the time of dosing. Percent dead cells relative to digitonin treated cells was determined and then subtracted from 100% to yield the percent live cells.

H4IIE cells [7] = assay: MemTox membrane leakage (AK / α-GST); type: cell-based, rat
Protocol: as §1, §2, §8, §9

H4IIE cells [8] = assay: Cell number (propidium iodide); type: cell-based, rat
Protocol: as §1, §2
Cell Proliferation: Cell proliferation in each well was measured with propidium iodide (PI). This specific nucleic acid binding dye fluoresces when intercalated within the nucleic acids. The 15 nm shift enhances PI fluorescence approximately 20 times while the excitation maxima are shifted 30-40 nm. During method development experiments, it was determined that Triton-X-100 was the best solution to permeabilize the H4IIE cells thereby allowing the PI access to intracellular RNA and DNA. Fluorescence was measured using a Packard Fusion plate reader or equivalent reader at 540 nm excitation and 610 nm emission.
Cell Proliferation: After incubation, the test compound was removed and Triton X-100 solution containing propidium iodide is added. The plate was incubated and read on a fluorescent plate reader. Data was collected as relative fluorescent units (RFU). The blank was subtracted from the final well RFU. It represents the average of the first and last columns which contain no cells on that particular plate. The controls are untreated cells allowed to grow on the same plate. The compounds are represented by several separate RFU data points for each of the tested concentrations. The percent change relative to controls was calculated by dividing the average RFU by the control cell RFU and multiplying by 100.

H4IIE cells [9] = assay: MTT reduction; type: cell-based, rat
Protocol: as §1, §2, §7

H4IIE cells [10] = assay: Membrane lipid peroxidation (8-isoprostane ELISA); type: cell-based, rat
Protocol: as §3, §2

H4IIE cells [11] = assay: Intracellular ATP levels; type: cell-based, rat
Protocol: as §1, §2, §4, §5, §6

[12] = Metabolic stability (LC/MS, parent remaining); type: in vitro ADME, dog; conditions: 1 μM, 30 min at 37° C.
Protocol: (§10) Metabolic stability was conducted using pooled microsomes form induced (BNF/PB) male rat (Sprague-Dawley) animals and induced (BNF/PB) male dog (Beagle) animals. The test compounds were incubated for 30 min at 37° C. at concentrations of 1 μM. Subsequent LC/MS analysis measured disappearance of the parent molecule. The data are expressed as percent of parent remaining. Positive controls for highly metabolized compounds were included for comparison.
(§11) Metabolic Stability and Profiling by mass spectrometry: Metabolic stability was conducted using pooled male dog (beagle) microsomes and male rat (Sprague-Dawley) microsomes from induced (beta-Naphthoflavone/Phenobarbital, BNF/PB) animals. The test compounds were incubated for 30 min at 37° C. at concentrations of 1 and 10 μM. Subsequent analysis by mass spectrometry measured disappearance of the parent molecule. The data are expressed as percent of parent remaining. Positive controls for highly metabolized compounds were included for comparison.
(§12) Metabolic Stability: The analysis measured disappearance of the parent molecule. The data were expressed as percent of parent remaining. Positive controls for highly metabolized compounds were included for comparison.

[13] = Metabolic stability (LC/MS, parent remaining); type: in vitro ADME, rat; conditions: 1 μM, 30 min at 37° C.
Protocol: as §10, §11, §12

| SMILES | CC50 (H4IIE cells [1]) | Membrane Lipid Peroxidation (rat cardiomyocytes [2]) | CC50 (rat cardiomyocytes [3]) | CC50 (rat cardiomyocytes [4]) | CC50 (rat cardiomyocytes [5]) | % Control (Compound + CSA) (P-glycoprotein (PgP); with cyclosporin A) | % Control (Compound) (P-glycoprotein (PgP); without CSA) | CC50 (rat cardiomyocytes [6]) | CC50 (H4IIE cells [7]) | CC50 (H4IIE cells [8]) | CC50 (H4IIE cells [9]) | Membrane Lipid Peroxidation (H4IIE cells [10]) | CC50 (H4IIE cells [11]) | % Parent Remaining Dog Microsomes [12] | % Parent Remaining Rat Microsomes [13] |
| --- | --- | --- | --- | --- | --- | --- | --- | --- | --- | --- | --- | --- | --- | --- | --- |
| Cc1cn([C@H]2C[C@H](N=[N+]=[N-])[C@@H](CO)O2)c(=O)[nH]c1=O [AZT] | > 300 µM | 0 | > 300 µM | > 300 µM | > 300 µM | 99.0% | 116.6% | > 300 µM | > 300 µM | > 300 µM | > 300 µM | 0 | > 300 µM | – | – |
| Cc1ncc2n1-c1ccc(Cl)cc1C(c1ccccc1F)=NC2 [MIDAZOLAM] | – | – | – | – | – | – | – | – | – | – | – | – | – | 0.0% | 0.0% |
